Experimental data taken from ChEMBL document CHEMBL3885861, “Open TG-GATES”.

Organism: Rattus norvegicus
Assay: Open TG-GATES - Regimen: Daily Repeat
Type: toxicity, organism-based, Sprague-Dawley
Parameters: regimen Daily Repeat, gender Male, age 6 weeks
Settings: in vivo, po, route gavage; for APTT / Bas / Eos / Fbg / Hb / Ht / Lym / MCH / MCHC / MCV / Mono / Neu / PT / Plat / RBC / Ret / WBC: tissue Blood; for KIDNEY_L / KIDNEY_R / KIDNEY_TOTAL: tissue Kidney; for LIVER: tissue Liver; for A/G / ALP / ALT / AST / BUN / CRE / Ca / Cl / DBIL / GLC / IP / K / LDH / Na / PL / RALB / TBIL / TC / TG / TP / gamma-GTP: tissue Plasma
[1] = 300 mg/kg, 72 h, dose level Middle, time 3 day
[2] = 300 mg/kg, […], dose level Middle, time 7 day
[3] = 300 mg/kg, […], dose level Middle, time 14 day
[4] = 300 mg/kg, […], dose level Middle, time 28 day
[5] = 1000 mg/kg, 72 h, dose level High, time 3 day
[6] = 1000 mg/kg, […], dose level High, time 7 day
[7] = 1000 mg/kg, […], dose level High, time 14 day
[8] = 1000 mg/kg, […], dose level High, time 28 day

CC(C)(S)[C@@H](N)C(=O)O [PENICILLAMINE]
TERMINAL_BW [1]: 235.2 g
APTT [1]: 17.2 s
Bas [1]: 0.4%
Eos [1]: 1%
Fbg [1]: 301.4 mg/dL
Hb [1]: 13.7 g/dL
Ht [1]: 42.2%
Lym [1]: 79.2%
MCH [1]: 20.9 pg
MCHC [1]: 32.6%
MCV [1]: 64.1 fL
Mono [1]: 3.2%
Neu [1]: 15.4%
PT [1]: 14.1 s
Plat [1]: 114.9 x10_4/uL
RBC [1]: 658.6 x10_4/ul
Ret [1]: 7.6%
WBC [1]: 91.9 x10_2/uL
KIDNEY_L [1]: 1 g
KIDNEY_R [1]: 1 g
KIDNEY_TOTAL [1]: 2 g
LIVER [1]: 11.1 g
A/G [1]: 0.9
ALP [1]: 1461.8 IU/L
ALT [1]: 40.4 IU/L
AST [1]: 66.2 IU/L
BUN [1]: 14.4 mg/dL
CRE [1]: 0.2 mg/dL
Ca [1]: 11 mg/dL
Cl [1]: 106.6 meq/L
DBIL [1]: 0.012 mg/dL
GLC [1]: 181.6 mg/dL
IP [1]: 7.2 mg/dL
K [1]: 4 meq/L
LDH [1]: 102 IU/L
Na [1]: 144.6 meq/L
PL [1]: 159.2 mg/dL
RALB [1]: 2.8 g/dL
TBIL [1]: 0.028 mg/dL
TC [1]: 81.2 mg/dL
TG [1]: 102.8 mg/dL
TP [1]: 5.8 g/dL
gamma-GTP [1]: 1 IU/L
TERMINAL_BW [2]: 273.3 g
TERMINAL_BW [3]: 321.5 g
TERMINAL_BW [4]: 390 g
APTT [2]: 16.6 s
Bas [2]: 0%
Eos [2]: 1.4%
Fbg [2]: 377.6 mg/dL
Hb [2]: 13.4 g/dL
Ht [2]: 40.7%
Lym [2]: 75.4%
MCH [2]: 20.6 pg
MCHC [2]: 33.1%
MCV [2]: 62.4 fL
Mono [2]: 3.6%
Neu [2]: 18.8%
PT [2]: 14 s
Plat [2]: 122.4 x10_4/uL
RBC [2]: 652.2 x10_4/ul
Ret [2]: 5.9%
WBC [2]: 96 x10_2/uL
APTT [3]: 23.3 s
Bas [3]: 0.2%
Eos [3]: 1%
Fbg [3]: 375.6 mg/dL
Hb [3]: 14.7 g/dL
Ht [3]: 43.5%
Lym [3]: 81.2%
MCH [3]: 20.2 pg
MCHC [3]: 33.8%
MCV [3]: 59.8 fL
Mono [3]: 2.2%
Neu [3]: 15.2%
PT [3]: 14.3 s
Plat [3]: 133 x10_4/uL
RBC [3]: 727 x10_4/ul
Ret [3]: 5.2%
WBC [3]: 103.7 x10_2/uL
APTT [4]: 17.4 s
Bas [4]: 0.4%
Eos [4]: 1.2%
Fbg [4]: 485.2 mg/dL
Hb [4]: 14.4 g/dL
Ht [4]: 42.7%
Lym [4]: 78%
MCH [4]: 18.7 pg
MCHC [4]: 33.8%
MCV [4]: 55.4 fL
Mono [4]: 2.6%
Neu [4]: 17.2%
PT [4]: 14.7 s
Plat [4]: 132.7 x10_4/uL
RBC [4]: 770 x10_4/ul
Ret [4]: 3.1%
WBC [4]: 131.5 x10_2/uL
KIDNEY_L [2]: 1.2 g
KIDNEY_R [2]: 1.1 g
KIDNEY_TOTAL [2]: 2.3 g
KIDNEY_L [3]: 1.2 g
KIDNEY_R [3]: 1.3 g
KIDNEY_TOTAL [3]: 2.5 g
KIDNEY_L [4]: 1.4 g
KIDNEY_R [4]: 1.4 g
KIDNEY_TOTAL [4]: 2.9 g
LIVER [2]: 12.2 g
LIVER [3]: 13.6 g
LIVER [4]: 15.6 g
A/G [2]: 0.9
ALP [2]: 1362.2 IU/L
ALT [2]: 38.6 IU/L
AST [2]: 61 IU/L
BUN [2]: 15.6 mg/dL
CRE [2]: 0.2 mg/dL
Ca [2]: 10.8 mg/dL
Cl [2]: 103.8 meq/L
DBIL [2]: 0.012 mg/dL
GLC [2]: 189.4 mg/dL
IP [2]: 7.2 mg/dL
K [2]: 4 meq/L
LDH [2]: 67.4 IU/L
Na [2]: 141.6 meq/L
PL [2]: 164.8 mg/dL
RALB [2]: 2.7 g/dL
TBIL [2]: 0.034 mg/dL
TC [2]: 85.4 mg/dL
TG [2]: 113.4 mg/dL
TP [2]: 5.7 g/dL
gamma-GTP [2]: 1 IU/L
A/G [3]: 0.9
ALP [3]: 1395 IU/L
ALT [3]: 41.8 IU/L
AST [3]: 64.2 IU/L
BUN [3]: 15.4 mg/dL
CRE [3]: 0.2 mg/dL
Ca [3]: 10.9 mg/dL
Cl [3]: 105 meq/L
DBIL [3]: 0.008 mg/dL
GLC [3]: 176.4 mg/dL
IP [3]: 7.2 mg/dL
K [3]: 3.9 meq/L
LDH [3]: 100.2 IU/L
Na [3]: 142.8 meq/L
PL [3]: 160.2 mg/dL
RALB [3]: 2.8 g/dL
TBIL [3]: 0.04 mg/dL
TC [3]: 80.4 mg/dL
TG [3]: 119.2 mg/dL
TP [3]: 6 g/dL
gamma-GTP [3]: 1 IU/L
A/G [4]: 0.9
ALP [4]: 911.4 IU/L
ALT [4]: 33.8 IU/L
AST [4]: 56.8 IU/L
BUN [4]: 14.8 mg/dL
CRE [4]: 0.2 mg/dL
Ca [4]: 10.8 mg/dL
Cl [4]: 105.6 meq/L
DBIL [4]: 0.008 mg/dL
GLC [4]: 186.8 mg/dL
IP [4]: 6.2 mg/dL
K [4]: 3.6 meq/L
LDH [4]: 60.6 IU/L
Na [4]: 144 meq/L
PL [4]: 147 mg/dL
RALB [4]: 2.8 g/dL
TBIL [4]: 0.072 mg/dL
TC [4]: 77 mg/dL
TG [4]: 87.8 mg/dL
TP [4]: 6.1 g/dL
gamma-GTP [4]: 1 IU/L
TERMINAL_BW [5]: 225.3 g
APTT [5]: 20.2 s
Bas [5]: 0%
Eos [5]: 1.2%
Fbg [5]: 286.4 mg/dL
Hb [5]: 13.2 g/dL
Ht [5]: 40.3%
Lym [5]: 78.6%
MCH [5]: 20.1 pg
MCHC [5]: 32.7%
MCV [5]: 61.6 fL
Mono [5]: 2.6%
Neu [5]: 16.8%
PT [5]: 14.4 s
Plat [5]: 121.8 x10_4/uL
RBC [5]: 657.4 x10_4/ul
Ret [5]: 6.2%
WBC [5]: 87.8 x10_2/uL
KIDNEY_L [5]: 1 g
KIDNEY_R [5]: 1 g
KIDNEY_TOTAL [5]: 2 g
LIVER [5]: 9.8 g
A/G [5]: 1
ALP [5]: 1073 IU/L
ALT [5]: 38 IU/L
AST [5]: 60.8 IU/L
BUN [5]: 13.2 mg/dL
CRE [5]: 0.2 mg/dL
Ca [5]: 10.7 mg/dL
Cl [5]: 105.8 meq/L
DBIL [5]: 0.012 mg/dL
GLC [5]: 166 mg/dL
IP [5]: 7.5 mg/dL
K [5]: 4.1 meq/L
LDH [5]: 94.2 IU/L
Na [5]: 144.2 meq/L
PL [5]: 143 mg/dL
RALB [5]: 2.8 g/dL
TBIL [5]: 0.038 mg/dL
TC [5]: 74.8 mg/dL
TG [5]: 50.4 mg/dL
TP [5]: 5.7 g/dL
gamma-GTP [5]: 0.8 IU/L
TERMINAL_BW [6]: 247.8 g
TERMINAL_BW [7]: 282 g
TERMINAL_BW [8]: 342.2 g
APTT [6]: 21.8 s
Bas [6]: 0%
Eos [6]: 1.4%
Fbg [6]: 452.4 mg/dL
Hb [6]: 13.2 g/dL
Ht [6]: 40.6%
Lym [6]: 79.2%
MCH [6]: 19.2 pg
MCHC [6]: 32.5%
MCV [6]: 59 fL
Mono [6]: 3%
Neu [6]: 15%
PT [6]: 14.6 s
Plat [6]: 131.3 x10_4/uL
RBC [6]: 687.8 x10_4/ul
Ret [6]: 4.6%
WBC [6]: 104.2 x10_2/uL
APTT [7]: 22.3 s
Bas [7]: 0%
Eos [7]: 1.2%
Fbg [7]: 520.8 mg/dL
Hb [7]: 13.1 g/dL
Ht [7]: 39.8%
Lym [7]: 82.6%
MCH [7]: 18.7 pg
MCHC [7]: 32.9%
MCV [7]: 56.8 fL
Mono [7]: 2.2%
Neu [7]: 13.2%
PT [7]: 15.3 s
Plat [7]: 164 x10_4/uL
RBC [7]: 701 x10_4/ul
Ret [7]: 4.9%
WBC [7]: 115.3 x10_2/uL
APTT [8]: 17.8 s
Bas [8]: 0.4%
Eos [8]: 1.8%
Fbg [8]: 646.8 mg/dL
Hb [8]: 12.1 g/dL
Ht [8]: 37.3%
Lym [8]: 71.2%
MCH [8]: 16.1 pg
MCHC [8]: 32.4%
MCV [8]: 49.8 fL
Mono [8]: 4.2%
Neu [8]: 21.6%
PT [8]: 15.7 s
Plat [8]: 156.3 x10_4/uL
RBC [8]: 749.2 x10_4/ul
Ret [8]: 5.6%
WBC [8]: 153.3 x10_2/uL
KIDNEY_L [6]: 1.1 g
KIDNEY_R [6]: 1.1 g
KIDNEY_TOTAL [6]: 2.1 g
KIDNEY_L [7]: 1.2 g
KIDNEY_R [7]: 1.2 g
KIDNEY_TOTAL [7]: 2.3 g
KIDNEY_L [8]: 1.4 g
KIDNEY_R [8]: 1.4 g
KIDNEY_TOTAL [8]: 2.8 g
LIVER [6]: 10.7 g
LIVER [7]: 11.8 g
LIVER [8]: 14.6 g
A/G [6]: 0.9
ALP [6]: 1010.8 IU/L
ALT [6]: 37 IU/L
AST [6]: 49.6 IU/L
BUN [6]: 15.2 mg/dL
CRE [6]: 0.2 mg/dL
Ca [6]: 10.8 mg/dL
Cl [6]: 104.4 meq/L
DBIL [6]: 0.016 mg/dL
GLC [6]: 169.2 mg/dL
IP [6]: 6.9 mg/dL
K [6]: 3.8 meq/L
LDH [6]: 72.4 IU/L
Na [6]: 142.4 meq/L
PL [6]: 156.4 mg/dL
RALB [6]: 2.8 g/dL
TBIL [6]: 0.066 mg/dL
TC [6]: 86.8 mg/dL
TG [6]: 59.2 mg/dL
TP [6]: 5.9 g/dL
gamma-GTP [6]: 1 IU/L
A/G [7]: 0.9
ALP [7]: 881.6 IU/L
ALT [7]: 37.2 IU/L
AST [7]: 52.4 IU/L
BUN [7]: 13 mg/dL
CRE [7]: 0.2 mg/dL
Ca [7]: 10.7 mg/dL
Cl [7]: 105.4 meq/L
DBIL [7]: 0.008 mg/dL
GLC [7]: 174.6 mg/dL
IP [7]: 6.7 mg/dL
K [7]: 3.8 meq/L
LDH [7]: 79.6 IU/L
Na [7]: 142.8 meq/L
PL [7]: 148.6 mg/dL
RALB [7]: 2.7 g/dL
TBIL [7]: 0.058 mg/dL
TC [7]: 81.6 mg/dL
TG [7]: 43.8 mg/dL
TP [7]: 5.8 g/dL
gamma-GTP [7]: 1 IU/L
A/G [8]: 0.8
ALP [8]: 458.6 IU/L
ALT [8]: 26.8 IU/L
AST [8]: 43.6 IU/L
BUN [8]: 14.2 mg/dL
CRE [8]: 0.2 mg/dL
Ca [8]: 10.5 mg/dL
Cl [8]: 105 meq/L
DBIL [8]: 0.02 mg/dL
GLC [8]: 162.4 mg/dL
IP [8]: 6.5 mg/dL
K [8]: 4 meq/L
LDH [8]: 70.4 IU/L
Na [8]: 144 meq/L
PL [8]: 137.6 mg/dL
RALB [8]: 2.7 g/dL
TBIL [8]: 0.1 mg/dL
TC [8]: 77.2 mg/dL
TG [8]: 45.4 mg/dL
TP [8]: 5.9 g/dL
gamma-GTP [8]: 1.6 IU/L
